Assays:
Assay type in all cases: cell-based
[1] = tested on: HIV-1 infected monocytes (U1); assay: RT-qPCR of EV-associated HIV-1 TAR and env RNA from U1 cells; details: 5 days; for reduction in TAR RNA within EVs: average from two replicates; for incorporation of TAR RNA into EVs / incorporation of env RNA into EVs: 1, 5, 20, 50 μM; for incorporation of TAR RNA into EVs: FIG. 3A; for incorporation of env RNA into EVs: FIG. 3B; for env RNA within EVs: FIG. 9C
[2] = tested on: HIV-1 infected monocytes (U1); assay: RT-qPCR of intracellular HIV-1 TAR and env RNA in U1 cells (viral transcription); details: for intracellular TAR RNA (HIV-1 transcription) / intracellular env RNA (HIV-1 transcription): 1, 5, 20, 50 μM, 5 days, FIG. 4A; for intracellular TAR RNA / intracellular env RNA: CBD 1, 5, 10 μM, THC 1, 5, 10 μg/mL every day for 5 days, FIG. 15A
Protocol: HIV-1 infected monocytes (U1) were treated with CBD (1, 5, 20, and 50 μM) or THC (1, 5, 20, and 50 μM) for 5 days. Total RNA was isolated from cell pellets and analyzed by RT-qpCR for TAR RNA and env RNA. Student's t-test was used to determine significance (***=p<0.001, and**=p<0.01).
FIGS. 15A-15C are graphs and gels showing cannabidiols lower intracellular viral transcription and downstream viral products. U1 cells (1×10^6) were treated with a titration of CBD (1, 5, 10 μM) and THC (1, 5, 10 μg/mL) every day for 5 days. A) Intracellular RNA was isolated and analyzed through RT-qPCR for HIV-1 viral transcripts TAR and env. Each bar represents an average of three independent replicates. B) U1 cells (2×10^6) were treated with a titration of CBD (1, 5, 10 μM) every day for 5 days. Cells pellets were lysed, run through SDS-PAGE, and western blotted for (p-)/NF-κB, autophagosomal markers (p63, LC3), EV biogenesis marker VPS4, viral markers (gp120, Nef, p24), and Actin. C) U1 cells (5×10^6) were treated±CBD (10 μM) and Flavopiridol hydrochloride (50 nM; indicated as Flavo) and incubated for the following time points: 0 minutes, 2 hours and 6 hours. Cells were cross-linked with 1% formaldehyde solution and ChIP-ed for IgG and Pol II. ChIP DNA samples were analyzed via qPCR for TAR and env. Student's t-test was used for statistical analysis, where *p-value≤0.05; **p-value≤0.01, ***p-value≤0.001.
To determine if the observed reduction in EV-associated viral RNA was a result of a decrease in HIV-1 transcription rather than an alteration in the packaging of these viral RNAs into EVs, intracellular RNA was analyzed to assess for changes HIV-1 transcription. […] The differences in inhibition of short transcripts imply targeting at different stages of transcription with CBD inhibiting transcription initiation and THC inhibiting transcription elongation. These differences in transcriptional regulation can be further analyzed using a three-state L TR mathematical model to depict changes in viral RNA and protein production over extended periods of time (FIG. 4B).
For the isolation of total RNA, cells were harvested, washed once in 1×PBS without calcium or magnesium and resuspended in 50 μL of 1×PBS. For the isolation of total RNA from EVs, Nanotrap particles were incubated and harvested as described above, then resuspended in 50 μL of 1×PBS without calcium or magnesium. Total RNA was isolated from cell pellets and NT80/82 pellets bound with EVs using Trizol Reagent (Invitrogen) as described by the manufacturer's protocol. cDNA was generated using GoScript Reverse Transcription Systems (Promega) using Envelope Reverse: (5′-TGGGATAAGGGTCTGAAACG-3′ (SEQ ID NO:1); Tm=58° C.), and TAR Reverse: (5′-CAACAGACGGGCACACACTAC-3′ (SEQ ID NO:2), Tm=58° C.) primers. Serial dilutions of DNA from a CEM T-cell line containing a single copy of HIV-1 LAV provirus per cell (8E5 cells) were used as the quantitative standards. cDNA samples (2 μL/well) were plated into a Master Mix (18 μL/well) containing IQ Supermix (Bio-Rad), TAR Forward Primer (5′-GGTCTCTCTGGTTAGACCAGATCTG-3′ (SEQ ID NO:3)), TAR Reverse Primer (5′-CAACAGACGGGCACACACTAC-3′ (SEQ ID NO:4)), and TAR Probe (5′56-FAM-AG CCTCAATAAAGCTTGCCTTGAGTGCTTC-36-TAMSp-3′ (SEQ ID NO:5)). RT-qPCR conditions were as follows: one cycle for 2 min at 95° C. followed by 41 cycles of 95° C. for 15 s and 58° C. for 40 s. Reactions were performed in triplicate using the BioRad CFX96 Real Time System. Quantitation was determined using cycle threshold (Ct) values relative to the 8E5 standard curve using the BioRad CFX Manager Software. Analysis of generated raw data was analyzed using Microsoft Excel 2016.
Therefore, U1 monocytes were treated with a titration of CBD (1, 5, 10 μM) and THC (1, 5, 10 μg/mL) every day for 5 days. Total RNA was isolated from the harvested cell pellets followed by RT-qPCR analysis of 3 independent replicates for TAR and env RNAs.

[3] = tested on: HIV-1 infected U1 monocytic cells; assay: MTT cell viability assay; details: CBD 1, 5, 10 μM, THC 1, 5, 10 μg/ml, 5 days, FIG. 7
Protocol: FIG. 7 is a graph showing cell viability analysis of cannabidiol components on HIV-1 infected monocytes. HIV-1 infected U1 monocytic cells (1×10^6) were treated with CBD (green bars) at 1, 5, 10 and 50 μM) or THC (blue bars) at 1, 5, 10 and 50 μg/mL) every day for 5 days. Cell viability was determined using the MTT assay. Student's t-test was used for statistical analysis, where n.s is not significant, *p-value≤0.05; **p-value≤0.01, ***p-value≤0.001.
Cells were cultured in RPMI with 10% exosome-free FBS at 10^6 cells per well in 6 well plates. Cells were treated with 0.005% ethanol (control), CBD (1, 5 10, 50 μm) and THC (1, 5, 10, 50 μg/mL) once per day for 5 days. The MTT assay was used to measure cell death according to manufacturer's protocol (Sigma). After incubating with MTT solution for 2 h, the culture medium was aspirated and 1 mL of MTT solvent was added to each well. Cell viability was determined by the formation of formazan crystal and measured by absorbance at 590 nm and 620 nm, as previously described (Cotto et al., 2018, Cocaine and HIV-1 Tat Disrupt Cholesterol Homeostasis in Astrocytes: Implications for HIV-Associated Neurocognitive Disorders in Cocaine User Patients. Glia, 66(4), 889-902).
Supernatants were harvested and analyzed using ZetaView NTA.

[4] = CBD 1, 5, 10 μM, THC 1, 5, 10 μg/mL
[5] = 10 μM every day for 5 days, FIG. 15A lane 4

C=C(C)[C@@H]1CCC(C)=C[C@H]1c1c(O)cc(CCCCC)cc1O [CBD, 2-[1R-3-methyl-6R-(1-methylethenyl)-2-cyclohexen-1-yl]-5-pentyl-1,3-benzenediol]
reduction in TAR RNA within EVs ([1]; 5 μM, FIG. 9B): 55% | reduction in TAR RNA within EVs ([1]; 10 μM, FIG. 9B): 86% | incorporation of TAR RNA into EVs [1]: statistically significant, dose-dependent decrease | incorporation of env RNA into EVs [1]: statistically significant, dose-dependent decrease | dose-dependent decrease in EV-associated TAR RNA ([1]; CBD 1, 5, 10 μM, THC 1, 5, 10 μg/mL, FIG. 9B): dose-dependent decrease | env RNA within EVs [1, 4]: reduction | decrease in intracellular TAR RNA compared to untreated control [2, 5]: 95% | decrease in intracellular env RNA compared to untreated control [2, 5]: 96% | intracellular TAR RNA (HIV-1 transcription) [2]: decrease of both transcripts | intracellular env RNA (HIV-1 transcription) [2]: decrease of both transcripts | intracellular TAR RNA [2]: dose-dependent decrease | intracellular env RNA [2]: dose-dependent decrease | cell viability [3]: no effects on cell viability

CCCCCc1cc(O)c2c(c1)OC(C)(C)[C@@H]1CCC(C)=C[C@@H]21 [THC, Δ9-tetrahydrocannabinol]
incorporation of TAR RNA into EVs [1]: statistically significant, dose-dependent decrease | incorporation of env RNA into EVs [1]: statistically significant, dose-dependent decrease | env RNA within EVs [1, 4]: reduction | intracellular TAR RNA (HIV-1 transcription) [2]: only resulting in a decrease in the env RNA | intracellular env RNA (HIV-1 transcription) [2]: decrease in the env RNA | intracellular TAR RNA [2]: not TAR RNA | intracellular env RNA [2]: only treatment with the highest concentration of THC resulted in a significant decrease | cell viability [3]: no effects on cell viability

From US12208080B2, “Compositions and methods for modulation of extracellular vesicle release and treatment of neurological disorders” (GEORGE MASON RESEARCH FOUNDATION, INC., priority 2018, dated 2025)
